The values below come from patent US10869873B2 (priority 2011, dated 2020).

In data set [1] the test system is HeLa-derived TZM-b1 cells. Put plainly: Viability of HIV-1 infected TZM-b1 cells. It is filed as cell-based, human. The following applies: HIV-1 infected TZM-b1 cells treated daily for 4 days. An excerpt: To test the hypothesis that AAK1 and GAK are important for HIV infection, HeLa-derived TZM-b1 cells were used, which express CD4, CCR5 and CXCR4, as well as β-galactosidase and firefly luciferase reporter genes responsive to HIV transcription (Wei et al., Antimicrobial agents and chemotherapy 46:1896-1905, 2002). Cells were transfected with siRNAs targeting AAK1, GAK or a NT sequence followed by infection with the infectious HIV-1 NL4-3 clone (Adachi et al., J Virol 59:284-291, 1986), as described (Zhou et al., Cell Host & Microbe 4:495-504, 2008). Luciferase activity was measured at 96 hr postinfection.
Following 24, 48, and 72 hrs of treatment with inhibitory compounds or silencing with siRNAs, cells were incubated for 2-4 hrs at 37° C. in the presence of 10% AlamarBlue reagent (TREK Diagnostic Systems), as described (Einav et al., Nature Biotechnology 26, 1019-1027, 2008). Plates were then scanned and fluorescence was detected by using FLEXstation II 384 (Molecular Devices, Inc.).

For data set [2], the system named is HIV-1 NL4-3. Put plainly: HIV replication assay in TZM-b1 cells, luciferase. The format is cell-based. Particulars: for antiviral effect on HIV replication: HIV-1 infected TZM-b1 cells treated daily with serial dilutions for 4 days; for EC50: Human immunodeficiency virus 1, NL43, TZM-b1, 96 h, read-out: EC50, HIV replication.
The subject of data set [3] is core-AP2M1 binding. The data set can be described thus: Core-AP2M1 co-immunoprecipitation in membranes of HCV infected Huh-7.5 cells. The format is cell-based, HCV core / human AP2M1. The following applies: membranes of Huh-7.5 cells infected with J6/JFH, 100 nM calyculin-A. Here is the method:
To determine whether core binds AP2M1 in the context of authentic HCV infection, co-immunoprecipitation assays in membrane fractions prepared from Huh-7.5 cells infected with cell culture-grown HCV (J6/JFH) were performed (Lindenbach et al., Science 309:623-626, 2005). AP2M1 could bring down core when anti-AP2M1 antibodies but not IgG controls were added to the membrane lysates. […] (FIG. 2D). […] Colocalization of core with AP2M1 in Huh-7.5 cells 72 hr following electroporation with J6/JFH HCV RNA was also investigated.
Membranes were prepared from ˜20×10^6 Huh-7.5 cells infected with HCV (J6/JFH) (Lindenbach, et al., Science 309, 623-626, 2005), as previously described (Einav et al., J Virol 78, 11288-11295, 2004). Briefly, cells were collected by trypsinization, washed once with PBS and resuspended in HME buffer (20 mM HEPES [pH 7.4], 1 mM EDTA, 2 mM MgCl2), supplemented with phenylmethylsulfonyl fluoride to a final concentration of 1 mM and a protease inhibitors cocktail (Sigma). Cells were lysed by two cycles of freeze-thaw in dry ice-ethanol and then passaged through a 27.5-gauge needle 10 times. Nuclei were removed by centrifugation at 250×g for 10 min, and the postnuclear supernatant was subjected to ultracentrifugation at 100,000×g for 30 min to obtain the membrane preparation. All steps were done at 4° C. […] Immunoprecipitates were analyzed by western blotting. […]

Turning to `CO[C@@H]1[C@H](N(C)C(=O)c2ccccc2)C[C@H]2O[C@]1(C)n1c3ccccc3c3c4c(c5c6ccccc6n2c5c31)C(=O)NC4` [PKC-412], the effect on viability entry in data set [1] is “no effect on viability”. Moreover, the “antiviral effect on HIV replication” value in data set [2] is “significant dose response antiviral effect”.

A word on the EC50: it is the midpoint of the concentration-response curve. As for `C#Cc1cccc(Nc2ncnc3cc(OCCOC)c(OCCOC)cc23)c1` [erlotinib], the effect on viability entry in data set [1] was “no effect on viability”. Moreover, in data set [2], the “antiviral effect on HIV replication” value is “significant dose response antiviral effect” and the EC50 is 1400 ± 300 nM.

Consider `CCN(CC)CCNC(=O)c1c(C)[nH]c(/C=C2\C(=O)Nc3ccc(F)cc32)c1C` [sunitinib], for which the effect on viability result in data set [1] is “no effect on viability”. The concentration giving a half-maximal response (EC50) in data set [2] came out at 800 ± 400 nM.

For the compound `COC[C@@H]([C@H](O)[C@H](O)C(=O)NCC[C@H](C)c1nc(/C=C/C[C@@H]2O[C@]3(C[C@@H](O)[C@@H]2C)O[C@H]([C@H](C[C@H](O)[C@H](C)[C@H](O)[C@H](C)/C=C(C)/C(C)=C/C=C/C(C)=C\C#N)OC)[C@H](OP(=O)(O)O)C3(C)C)co1)N(C)C` [calyculin A], the “binding of core to AP2M1 (co-immunoprecipitation)” value in data set [3] was “significantly augmented”.
